Experimental data published in ChEMBL document CHEMBL1156082, “Novel orally active morpholine N-arylsulfonamides gamma-secretase inhibitors with low CYP 3A4 liability” (Bioorg Med Chem Lett, 2009).

Legend:
[1] = Inhibition of gamma-secretase assessed as reduction in membrane amyloid beta40 production
[2] = AUC (0 to 6 hrs) in rat blood at 10 mg/kg, po; format: ADME, organism-based; design: time < 6 hr, dose 10 mg/kg, route oral
[3] = Inhibition of gamma-secretase assessed as reduction in cell amyloid beta40 production
[4] = Drug level in rat brain at 10 mg/kg, po; format: ADME, organism-based; design: dose 10 mg/kg, route oral
Mus musculus [5] = assay: Reduction of amyloid beta40 level in TgCRND8 mouse plasma at 30 mg/kg, sc after 3 hrs; format: functional; design: scale not given: the % may be the effect or the level left; details: route subcutaneous
[6] = Inhibition of gamma-secretase-mediated notch processing by whole cell assay
Mus musculus [7] = assay: Reduction of amyloid beta40 level in TgCRND8 mouse plasma drug dosed po once daily for 5 days; format: functional; details: 120 h
[8] = Ratio of IC50 for gamma-secretase-mediated notch processing to IC50 for gamma-secretase assessed as reduction in cell amyloid beta40 production
Mus musculus [9] = assay: Reduction of amyloid beta40 level in TgCRND8 mouse brain drug dosed po once daily for 5 days; format: functional; details: 120 h

IC50 [1] [µM] | AUC(0-t) at 6 h [2] [ng·h/mL] | IC50 [3] [µM] | SMILES | other results
0.0089 | 567 | 0.031 | CN(C)CC(=O)N1C2CCC1CN(C(=O)OC1([C@H]3COC[C@@H](C4CC4)N3S(=O)(=O)c3ccc(Cl)cc3)CC1)C2 | 
0.076 |  | 0.095 | O=C(OC[C@H]1COC[C@@H](c2cc(F)cc(F)c2)N1S(=O)(=O)c1ccc(Cl)cc1)N1CCN(CCO)CC1 | 
0.02 | 11 | 0.031 | O=C(OC1([C@H]2COC[C@@H](C3CC3)N2S(=O)(=O)c2ccc(Cl)cc2)CC1)N1CC[C@H](OCCO)C1 | 
0.024 |  |  | O=C(O)CC1CCN(C(=O)OC2([C@H]3COC[C@@H](C4CC4)N3S(=O)(=O)c3ccc(Cl)cc3)CC2)CC1 | AUC [4]: 2460 ng·h/mL
0.014 | 35 | 0.041 | NC(=O)CC1CCN(C(=O)OC2([C@H]3COC[C@@H](C4CC4)N3S(=O)(=O)c3ccc(Cl)cc3)CC2)CC1 | 
0.012 |  |  | O=C(OC1([C@H]2COC[C@@H](c3cc(F)cc(F)c3)N2S(=O)(=O)c2ccc(Cl)cc2)CC1)N1CC[C@H](O)C1 | Activity (Mus musculus [5]): 21%
0.0095 | 446 | 0.009 | CC(C)(CO)N1CCN(C(=O)OC2([C@H]3COC[C@@H](C4CC4)N3S(=O)(=O)c3ccc(Cl)cc3)CC2)CC1 | Activity (Mus musculus [5]): -78%
0.041 |  |  | CS(=O)(=O)N1C2CCC1CN(C(=O)OC1([C@H]3COC[C@@H](C4CC4)N3S(=O)(=O)c3ccc(Cl)cc3)CC1)C2 | 
0.0011 | 1370 |  | CC1(C)OC[C@H](C2(OC(=O)N3CC4CCC(C3)N4CCO)CC2)N(S(=O)(=O)c2ccc(Cl)cc2)[C@@H]1C1CC1 | 
0.03 |  |  | CC(C)(C(=O)O)C1CCN(C(=O)OC2([C@H]3COC[C@@H](C4CC4)N3S(=O)(=O)c3ccc(Cl)cc3)CC2)CC1 | AUC [4]: 703 ng·h/mL
0.01 | 1100 | 0.025 | CCN1C2CCC1CN(C(=O)OC1([C@H]3COC[C@@H](C4CC4)N3S(=O)(=O)c3ccc(Cl)cc3)CC1)C2 | 
0.027 |  |  | O=C(OC1([C@H]2COC[C@@H](C3CC3)N2S(=O)(=O)c2ccc(Cl)cc2)CC1)N1CC[C@H](O)C1 | 
0.0046 | 6 |  | CC(=O)N1C2CCC1CN(C(=O)OC1([C@H]3COC(C)(C)[C@@H](C4CC4)N3S(=O)(=O)c3ccc(Cl)cc3)CC1)C2 | 
0.049 | 870 |  | O=C(OC1([C@H]2COC[C@@H](C3CC3)N2S(=O)(=O)c2ccc(Cl)cc2)CC1)N1CC[C@H](NS(=O)(=O)C(F)(F)F)C1 | 
0.0079 | 1920 | 0.015 | O=C(OC1([C@H]2COC[C@@H](C3CC3)N2S(=O)(=O)c2ccc(Cl)cc2)CC1)N1CC2CCC(C1)N2CCO | IC50 [6]: 0.194 µM; ED50 (Mus musculus [7]): 10 mg/kg; Ratio IC50 [8]: 13; Activity (Mus musculus [5]): -93%; ED50 (Mus musculus [9]): 100 mg/kg
0.0014 |  |  | CC(C)(CO)N1CCN(C(=O)OC2([C@H]3COC[C@@H](c4cc(F)cc(F)c4)N3S(=O)(=O)c3ccc(Cl)cc3)CC2)CC1 | Activity (Mus musculus [5]): -68%
0.0055 |  |  | C[C@@H]1CN(C(=O)OC2([C@H]3COC[C@@H](c4cc(F)cc(F)c4)N3S(=O)(=O)c3ccc(Cl)cc3)CC2)CCN1CCO | Activity (Mus musculus [5]): -87%
0.037 |  |  | C[C@@H]1CN(C(=O)OC2([C@H]3COC[C@@H](C4CC4)N3S(=O)(=O)c3ccc(Cl)cc3)CC2)CCN1CCO | 
 |  | 0.005 | O=C(OC1([C@H]2CCC[C@@H](c3cc(F)cc(F)c3)N2S(=O)(=O)c2ccc(Cl)cc2)CC1)N1CCN(CCO)CC1 | 
0.041 |  | 0.167 | O=C(OC[C@H]1CCC[C@@H](c2cc(F)cc(F)c2)N1S(=O)(=O)c1ccc(Cl)cc1)N1CCN(CCO)CC1 | 
0.0024 | 2910 | 0.017 | CN1CC2CCC(C1)N2C(=O)OC1([C@H]2COC[C@@H](C3CC3)N2S(=O)(=O)c2ccc(Cl)cc2)CC1 | 

SMILES | IC50 [1] [µM] | AUC(0-t) at 6 h [2] [ng·h/mL] | IC50 [3] [µM] | other results
O=C(OC1([C@H]2COC[C@@H](C3CC3)N2S(=O)(=O)c2ccc(Cl)cc2)CC1)N1C2CCC1CNC2 | 0.017 | 4660 | 0.072 | 
C[C@H]1OC[C@H](C2(OC(=O)N3CC4CCC(C3)N4CCO)CC2)N(S(=O)(=O)c2ccc(Cl)cc2)[C@@H]1C1CC1 | 0.0009 |  |  | 
CC(=O)N1C2CCC1CN(C(=O)OC1([C@H]3CO[C@H](C)[C@@H](C4CC4)N3S(=O)(=O)c3ccc(Cl)cc3)CC1)C2 | 0.004 | 23 |  | 
CC(=O)N1C2CCC1CN(C(=O)OC1([C@H]3COC[C@@H](C4CC4)N3S(=O)(=O)c3ccc(Cl)cc3)CC1)C2 | 0.015 | 871 | 0.025 | 
O=C(OC1([C@H]2COC[C@@H](C3CC3)N2S(=O)(=O)c2ccc(Cl)cc2)CC1)N1C2CCC1CN(CCO)C2 | 0.015 | 1280 | 0.027 | 
CN1C2CCC1CN(C(=O)OC1([C@H]3COC[C@@H](C4CC4)N3S(=O)(=O)c3ccc(Cl)cc3)CC1)C2 | 0.0046 | 939 | 0.02 | Activity (Mus musculus [5]): -88%
C[C@@H]1OC[C@H](C2(OC(=O)N3CC4CCC(C3)N4CCO)CC2)N(S(=O)(=O)c2ccc(Cl)cc2)[C@@H]1C1CC1 | 0.0015 |  |  | 
CC(=O)N1C2CCC1CN(C(=O)OC1([C@H]3CO[C@@H](C)[C@@H](C4CC4)N3S(=O)(=O)c3ccc(Cl)cc3)CC1)C2 | 0.0054 | 178 |  | 
O=C(OC1([C@H]2COC[C@@H](C3CC3)N2S(=O)(=O)c2ccc(Cl)cc2)CC1)N1CC2CCC(C1)N2 | 0.0071 | 4360 | 0.025 | Activity (Mus musculus [5]): -90%
